# Test results reported in ChEMBL document CHEMBL4725344, “Development of Highly Potent Carbazole Amphiphiles as Membrane-Targeting Antimicrobials for Treating Gram-Positive Bacterial Infections” (J Med Chem, 2020).
# Active and inactive are the calls of the source. The calls are words filed in the database; no cut-off is given here.
# Tests used:
# [1] = Cytotoxicity against mouse J774.A1 cells assessed as cell viability at 25 ug/ml measured after 24 hrs by CCK8 assay relative to control; type: cell-based; settings: at 25 µg/mL, read-out: Activity
# [2] = tested on: Staphylococcus aureus; test: Bactericidal activity against Staphylococcus aureus ATCC 29213 assessed as log reduction in bacterial count at 4 times MIC preincubated for 4 hrs followed by replating on MHA medium measured after 24 hrs by time kill assay; type: functional; settings: time 28 hrs
# [3] = Cytotoxicity against mouse corneal epithelial cells assessed as cell viability at […] ug/ml measured after 24 hrs by CCK8 assay relative to control; type: cell-based; settings: dose 1.56 µg/ml, read-out: Activity
# [4] = tested on: Bacillus subtilis; test: Displacement of BODIPYTM-TR-cadaverine from Bacillus subtilis LTA at 8 times MIC measured after 30 mins by fluorescence assay relative to control
# [5] = tested on: Cell membrane; test: Induction of cell membrane damage in Staphylococcus aureus ATCC 29213 assessed as membrane perforation at 8 times MIC measured after 2 hrs by TEM analysis
# [6] = tested on: Bacillus subtilis; test: Displacement of BODIPYTM-TR-cadaverine from Bacillus subtilis LTA at 2 times MIC measured after 30 mins by fluorescence assay relative to control
# [7] = Cytotoxicity against mouse J774.A1 cells assessed as cell viability at 12.5 ug/ml measured after 24 hrs by CCK8 assay relative to control; type: cell-based; settings: at 12.5 µg/mL, read-out: Activity
# [8] = tested on: Staphylococcus aureus; test: Bactericidal activity against Staphylococcus aureus ATCC 29213 assessed as log reduction in bacterial count at 8 times MIC preincubated for 1 hr followed by replating on MHA medium measured after 24 hrs by time kill assay; type: functional; settings: time 25 hrs
# [9] = Hemolytic activity in rabbit erythrocytes measured after 1 hr by microplate reader analysis; type: ADME, cell-based, Oryctolagus cuniculus, Erythrocyte
# [10] = tested on: Staphylococcus aureus; test: Antibacterial activity against methicillin-resistant Staphylococcus aureus NCTC 10442 measured after 24 hrs by microplate reader analysis; type: functional
# [11] = Cytotoxicity against mouse J774.A1 cells assessed as cell viability at 50 ug/ml measured after 24 hrs by CCK8 assay relative to control; type: cell-based; settings: at 50 µg/mL, read-out: Activity
# [12] = Cytotoxicity against mouse corneal epithelial cells assessed as cell viability at 100 ug/ml measured after 24 hrs by CCK8 assay relative to control; type: cell-based; settings: at 100 µg/mL, read-out: Activity
# [13] = tested on: Staphylococcus aureus; test: Antibacterial activity against Staphylococcus aureus ATCC 29213 at 0.5 times MIC passaged daily for 21 days; type: functional, organism-based; settings: time 21.0 day
# [14] = Toxicity in C57BL6 mouse assessed as corneal damage at 0.5% administered as topical solution for 4 times per day for 3 days and measured post-last dose by fluorescein sodium staining based slit-lamp biomicroscopic method; settings: in vivo, topical_or_ocular, 72 h, time 3 day
# [15] = Cytotoxicity against mouse corneal epithelial cells assessed as cell viability at 6.25 ug/ml measured after 24 hrs by CCK8 assay relative to control; type: cell-based; settings: at 6.25 µg/mL, read-out: Activity
# [16] = Cytotoxicity against mouse corneal epithelial cells assessed as cell viability at 3.125 ug/ml measured after 24 hrs by CCK8 assay relative to control; type: cell-based; settings: at 3.125 µg/mL, read-out: Activity
# [17] = Cytotoxicity against mouse J774.A1 cells assessed as cell viability at […] ug/ml measured after 24 hrs by CCK8 assay relative to control; type: cell-based; settings: dose 1.56 µg/ml, read-out: Activity
# [18] = Selectivity index, ratio of HC50 for rabbit erythrocytes to MIC for methicillin-resistant Staphylococcus aureus N315; type: toxicity; settings: read-out: Selectivity Index
# [19] = Selectivity index, ratio of HC50 for rabbit erythrocytes to MIC for Staphylococcus aureus ATCC 29213; type: toxicity; settings: read-out: Selectivity Index
# [20] = Cytotoxicity against mouse J774.A1 cells assessed as cell viability at 3.125 ug/ml measured after 24 hrs by CCK8 assay relative to control; type: cell-based; settings: at 3.125 µg/mL, read-out: Activity
# [21] = tested on: Bacillus subtilis; test: Displacement of BODIPYTM-TR-cadaverine from Bacillus subtilis LTA at 4 times MIC measured after 30 mins by fluorescence assay relative to control
# [22] = Selectivity index, ratio of HC50 for rabbit erythrocytes to MIC for methicillin-resistant Staphylococcus aureus NCTC 10442; type: toxicity; settings: read-out: Selectivity Index
# [23] = tested on: Staphylococcus aureus; test: Antibacterial activity against Staphylococcus aureus ATCC 29213 measured after 24 hrs by microplate reader analysis; type: functional
# [24] = Hemolytic activity in rabbit erythrocytes assessed as hemolysis at 200 ug/ml measured after 1 hr by microplate reader analysis relative to control; type: ADME, cell-based, Oryctolagus cuniculus, Erythrocyte; settings: at 200 µg/mL, read-out: Activity
# [25] = tested on: Staphylococcus aureus; test: Antibacterial activity against Staphylococcus aureus ATCC 29213 infected in cyclophosphamide-immunosuppressed C57BL6 mouse cornea assessed as log reduction in corneal bacterial count at 0.5% administered as topical solution for 4 times per day for 3 days and measured post-last dose by standard plate counting method; type: functional; settings: time 3 day
# [26] = Cytotoxicity against mouse corneal epithelial cells assessed as cell viability at 50 ug/ml measured after 24 hrs by CCK8 assay relative to control; type: cell-based; settings: at 50 µg/mL, read-out: Activity
# [27] = tested on: Cell membrane; test: Disruption of cell membrane integrity in Staphylococcus aureus ATCC 29213 assessed as increase in red fluorescence at 8 times MIC measured after 2 hrs by Syto9/propidium iodide Live/dead staining based laser confocal microscopic analysis; type: subcellular
# [28] = Cytotoxicity against mouse J774.A1 cells assessed as cell viability at 100 ug/ml measured after 24 hrs by CCK8 assay relative to control; type: cell-based; settings: at 100 µg/mL, read-out: Activity
# [29] = tested on: Staphylococcus aureus; test: Antibacterial activity against methicillin-resistant Staphylococcus aureus NCTC 10442 measured after 24 hrs in presence of LTA by microplate reader analysis; type: functional
# [30] = Cytotoxicity against mouse corneal epithelial cells assessed as cell viability […] measured after 24 hrs by CCK8 assay relative to control; type: cell-based; settings: dose 25 µg/ml, read-out: Activity
# [31] = tested on: Cell membrane; test: Induction of cell membrane damage in Staphylococcus aureus ATCC 29213 assessed as wrinkle formation at 8 times MIC measured after 2 hrs by SEM analysis; type: subcellular
# [32] = tested on: Bacillus subtilis; test: Displacement of BODIPYTM-TR-cadaverine from Bacillus subtilis LTA at MIC measured after 30 mins by fluorescence assay relative to control
# [33] = tested on: Staphylococcus aureus; test: Antibacterial activity against methicillin-resistant Staphylococcus aureus N315 measured after 24 hrs by microplate reader analysis; type: functional
# [34] = Cytotoxicity against mouse corneal epithelial cells assessed as reduction in cell viability measured after 24 hrs by CCK8 assay; type: cell-based
# [35] = tested on: Staphylococcus aureus; test: Antibacterial activity against Staphylococcus aureus ATCC 29213 measured after 24 hrs in presence of LTA by microplate reader analysis; type: functional
# [36] = Cytotoxicity against mouse J774.A1 cells assessed as reduction in cell viability measured after 24 hrs by CCK8 assay; type: cell-based
# [37] = Cytotoxicity against mouse J774.A1 cells assessed as cell viability at 6.25 ug/ml measured after 24 hrs by CCK8 assay relative to control; type: cell-based; settings: at 6.25 µg/mL, read-out: Activity
# [38] = Cytotoxicity against mouse corneal epithelial cells assessed as cell viability at 12.5 ug/ml measured after 24 hrs by CCK8 assay relative to control; type: cell-based; settings: at 12.5 µg/mL, read-out: Activity
# [39] = tested on: Cell membrane; test: Induction of cell membrane damage in Staphylococcus aureus ATCC 29213 assessed as membrane perforation at 8 times MIC measured after 2 hrs by SEM analysis
# [40] = tested on: Cell membrane; test: Induction of inner membrane permeabilization in Staphylococcus aureus ATCC 29213 measured for 1 hr by SYTOX green dye based fluorescence assay; type: subcellular
# [41] = tested on: Cell membrane; test: Induction of inner membrane permeabilization in methicillin-resistant Staphylococcus aureus NCTC 10442 measured for 1 hr by SYTOX green dye based fluorescence assay; type: subcellular
structure (smiles),measurement,setting,value
CC(C)=CCn1c2ccccc2c2c(OCC(O)CNC(=N)N)cccc21 (stereo unspecified),"viability at 24 h, 25 ug/ml",[1],78.2%
same,log(activity),[2],3.45
same,"viability at 24 h, 1.56 ug/ml",[3],88.3%
same,inhibition,[4],35.8%
same,Activity,[5],Active
same,inhibition,[6],22.3%
same,"viability at 24 h, 12.5 ug/ml",[7],80.5%
same,log(activity),[8],3.21
same,HC50 at 1 h,[9],> 200 µg/mL
same,MIC,[10],1.56 µg/mL
same,"viability at 24 h, 50 ug/ml",[11],28.1%
same,"viability at 24 h, 100 ug/ml",[12],6.65%
same,Activity,[13],Active
same,Activity,[14],Non-Toxic
same,"viability at 24 h, 6.25 ug/ml",[15],85.3%
same,"viability at 24 h, 3.125 ug/ml",[16],87.9%
same,"viability at 24 h, 1.56 ug/ml",[17],96.3%
same,selectivity ratio,[18],> 128
same,selectivity ratio,[19],> 128
same,"viability at 24 h, 3.125 ug/ml",[20],95%
same,inhibition,[21],28.8%
same,selectivity ratio,[22],> 128
same,MIC,[23],1.56 µg/mL
same,"hemolysis at 1 h, 200 ug/ml",[24],3.5%
same,log(activity),[25],4.17
same,"viability at 24 h, 50 ug/ml",[26],8.52%
same,Activity,[27],Active
same,"viability at 24 h, 100 ug/ml",[28],20.5%
same,MIC,[29],1.56 µg/mL
same,viability at 24 h,[30],34.1%
same,Activity,[31],Active
same,inhibition,[32],12.9%
same,MIC,[33],0.78 µg/mL
same,CC50 at 24 h,[34],23.8 µg/mL
same,MIC,[35],1.56 µg/mL
same,CC50 at 24 h,[36],37.2 µg/mL
same,"viability at 24 h, 6.25 ug/ml",[37],86.2%
same,"viability at 24 h, 12.5 ug/ml",[38],75.1%
same,Activity,[39],Active
same,Activity,[40],Dose-dependent effect
same,Activity,[41],Dose-dependent effect
